# Measurements published in patent US20080064692A1.
# Read-outs that look alike come from different tables or passages of the source.
# What was measured:
# Corticium sasakii = conditions: rice cultivar Tai-Nong 67, protective spray, evaluated after 11 days
# Protocol: (§1) 1% by weight of the emulsifier Uniperol® EL (wetting agent having emulsifying and dispersant action based on ethoxylated alkylphenols) was added to this solution, and the mixture was diluted with water to the desired concentration.
# (§2) Evaluation is carried out by determining the infected leaf areas in percent. These percentages were converted into efficacies.
# (§3) The efficacy (E) is calculated as follows using Abbot's formula:
# (§4) α corresponds to the fungicidal infection of the treated plants in % and β corresponds to the fungicidal infection of the untreated (control) plants in %
# (§5) An efficacy of 0 means that the infection level of the treated plants corresponds to that of the untreated control plants; an efficacy of 100 means that the treated plants are not infected.
# The next day, oat grains infected with Corticium sasakii were placed into the pots (in each case 5 grains per pot). The plants were then placed in a chamber at 26° C. and maximum atmospheric humidity.
# Plasmopara viticola = experiment: Activity against Peronospora of grapevines caused by Plasmopara viticola; conditions: vines cultivar Riesling, protective spray
# Protocol: as §1, §2, §3, §4, §5
# The next day, the undersides of the leaves were inoculated with an aqueous zoospore suspension of Plasmopara viticola. The grapevines were then initially placed in a water-vapor-saturated chamber at 24° C. for 48 hours and then in a greenhouse at 20-30° C. for 5 days. After this period of time, the plants were again placed in a humid chamber for 16 hours to promote sporangiophore eruption. The extent of the development of the disease on the undersides of the leaves was then determined visually.
SMILES,Efficacy in % of the untreated control (Corticium sasakii; 4 ppm in the spray liquor) [%],Efficacy in % of the untreated control (Plasmopara viticola; 4 ppm in the spray liquor) [%],Efficacy in % of the untreated control (Plasmopara viticola; 16 ppm in the spray liquor) [%],Efficacy in % of the untreated control (Corticium sasakii; 1 ppm in the spray liquor) [%],Efficacy in % of the untreated control (Corticium sasakii; 16 ppm in the spray liquor) [%]
"CC1CCN(c2c(-c3c(F)cc(F)cc3F)c(Cl)nc3ncnn23)CC1 [I, 5-chloro-7-(4-methylpiperidin-1-yl)-6-(2,4,6-trifluorophenyl)-[1,2,4]triazolo[1,5-a]pyrimidine]",30,21,44,,
"CO/N=C(/C1=NOCCO1)c1ccccc1Oc1ncnc(Oc2ccccc2Cl)c1F [II (fluoxastrobin), {2-[6-(2-chlorophenoxy)-5-fluoropyrimidin-4-yloxy]phenyl}-(5,6-dihydro-[1,4,2]dioxazin-3-yl)methanon O-methyl oxime]",,21,55,0,18
